Assay results published in patent US10077236B2, “Azacyclic constrained analogs of FTY720” (The Regents of the University of California, priority 2013, dated 2018).
“Also recorded” adds a separate entry of the source.

Legend:
[1] = test system: DU145 prostate cancer cell line; experiment: Cell viability assay, DU145; assay type: cell-based, human; conditions: 72 h, vital dye exclusion and flow cytometry; read-out: Mean IC50 (+/- SEM) in cell viability assay, DU145 prostate
Experimental: (§1) Flow cytometry: Much of the biological activity presented is shown through flow cytometry data. […] Here, IC50 flow cytometry assays were used. […] To measure nutrient receptor expression following exposure to FTY720 and azacyclic constrained analogs of FTY720, surface 4F2hc expression was measured after 3 hours of drug treatment by staining 150,000 cells with phycoerythrin-conjugated mouse anti-human CD98 (by BD Biosciences™). Analysis was restricted to viable cells. All samples for the disclosed sets of data were analyzed on a BD LSR II flow cytometer and data analyzed with FlowJo™ software (by Treestar™). IC50's were calculated and statistical tests were performed using GraphPad Prism™.

[2] = test system: BCR-Abl+ SFO2 cells; experiment: Combination with trametinib in BCR-Abl+ SFO2 patient-derived leukemia cells; assay type: cell-based, human; conditions: cytostatic concentration of trametinib + cytostatic concentration of compound 6
From the text: FIGS. 10n and 10o provide data results from a study of the effectiveness of treating BCR-Abl+ SFO2 cells (10n), and also in BCR-Abl− LAX7R cells (10o), which is a late-stage leukemia resistant to chemotherapy.

[3] = test system: circulating lymphocytes; experiment: Lymphocyte sequestration (circulating lymphocytes); assay type: in vivo, mouse; conditions: number of circulating lymphocytes 12 h after dosage
From the text: (§2) As previously discussed, FTY720 itself cannot be used in cancer patients because phosphorylation of FTY720 by SphKs makes FTY720-P, which acts at S1P receptors to cause bradycardia and immunosuppression (on-target effect for primary use).

[4] = test system: Nalm-6 Ph- ALL cell line; experiment: Cell viability assay, Nalm-6; assay type: cell-based, human; conditions: 72 h, vital dye exclusion and flow cytometry; read-out: Mean IC50 (+/- SEM) in cell viability assay, Nalm-6 Ph- ALL
From the text: (§3) Leukemia cell assays: Effects of chemical changes on ability to kill cells as observed in cell viability assays using the BCR-ABL positive human acute lymphoblastic leukemia (ALL) cell line, Sup-B15 are described. Assays using the Sup-B15 cell line were designed to determine efficacy of azacyclic constrained small molecule analogs of FTY720 in killing leukemia cells. Analogs were generated using the synthesis methods mentioned above. Sup-B15 cells were maintained at 2-3 million/mL in RPMI 1640 (by Mediatech™) supplemented with 10% fetal calf serum (by Sigma-Aldrich™), 10 mM Hepes (by Mediatech™), 55 μM β-mercaptoethanol (by Sigma-Aldrich™), 2 mM L-glutamine (by Mediatech™), and antibiotics. BV173, Nalm-6, and Blin-1 were maintained at 1-2 million/mL and CCRF-CEM at less than 500,000/mL in the same medium. BMp190 cells were created by transducing murine bone marrow cells with pMIC-p190 which expresses the p190 isoform of BCR-Abl and human CD4 from an IRES; these cells were kept at 1-2 million/mL in RPMI supplemented as above.
(§4) Flow cytometry: Much of the biological activity presented is shown through flow cytometry data. […] Here, IC50 flow cytometry assays were used. In them, viability was determined at 72 hours by vital dye exclusion [propium iodide or DAPI (4′,6-diamindino-2-phenylindole)]. To measure nutrient receptor expression following exposure to FTY720 and azacyclic constrained analogs of FTY720, surface 4F2hc expression was measured after 3 hours of drug treatment by staining 150,000 cells with phycoerythrin-conjugated mouse anti-human CD98 (by BD Biosciences™). Analysis was restricted to viable cells.
(§5) All samples for the disclosed sets of data were analyzed on a BD LSR II flow cytometer and data analyzed with FlowJo™ software (by Treestar™). IC50's were calculated and statistical tests were performed using GraphPad Prism™.

[5] = Distribution of compound 6 and its phosphorylated form in plasma, bone marrow and spleen of mice; assay type: in vivo; conditions: normalization to total protein; tissues versus blood
Experimental: A study was then conducted to examine what happens to compound 6 when administered to animals. Mice were treated with 10 mg/kg doses of compound 6 (i.p.) and then the mice were sacrificed at various time points, then plasma, bone marrow, and spleen tissue were extracted to build curves. […] Indeed, the ratio of phosphorylated to unphosphorylated compound 6 in the spleen and bone marrow is close to 1:1 after i.p. administration.

[6] = test system: SphK2 null MEFs; experiment: Sensitivity of SphK2 null MEFs; assay type: cell-based
Experimental: (§6) The importance of phosphorylation in the activity of compound 6 was then examined. In this study MEF knockout lines that show the same differential sensitivity to compound 6 relative to its enantiomers as leukemia cells were used (FIG. 10h). […] A phosphate and a non-phosphorylatable analog of compound 6 were then tested.

[7] = test system: SphK1 null MEFs; experiment: Sensitivity of SphK1 null MEFs; assay type: cell-based
Experimental: as §6

[8] = test system: patient-derived BCR-Abl+ acute lymphoblastic leukemia cells; experiment: Viability of patient-derived BCR-Abl+ acute lymphoblastic leukemia cells; assay type: cell-based, human; conditions: 96 h, flow cytometry (vital dye exclusion)
Experimental: Finally, in FIG. 10g dose response curves are provided for studies conducted with patient-derived BCR-Abl+ acute lymphoblastic leukemia cells. Viability was measured at 96 h by flow cytometry (vital dye exclusion).

[9] = test system: SupB15 model, leukemic burden in the bone marrow; experiment: In vivo SupB15 leukemia model; conditions: 21 days of treatment, 10 mg/kg i.p.
From the text: Since compound 6 worked so well in the leukemia cell line, an examination of its effectiveness in vivo in a SupB15 model was undertaken.

[10] = test system: PC3 prostate cancer cell line; experiment: Cell viability assay, PC3; assay type: cell-based, human; conditions: 72 h, vital dye exclusion and flow cytometry; read-out: Mean IC50 (+/- SEM) in cell viability assay, PC3 prostate
Experimental: as §1

[11] = Mouse heart rate by telemetry; assay type: in vivo; conditions: telemetry for 24 h after administration of anti-cancer dose
From the text: as §2

[12] = test system: Sup-B15 BCR-ABL positive human acute lymphoblastic leukemia (ALL) cell line; experiment: Cell viability assay, Sup-B15 leukemia cells (flow cytometry, vital dye exclusion); assay type: cell-based; conditions: for cell death in combination with dasatinib: 72 h
From the text: as §3, §4, §5

[13] = test system: Blin-1 Ph- ALL cell line; experiment: Cell viability assay, Blin-1; assay type: cell-based, human; conditions: 72 h, vital dye exclusion and flow cytometry; read-out: Mean IC50 (+/- SEM) in cell viability assay, Blin-1 Ph- ALL
From the text: as §3, §4, §5

CCCCCCCCc1ccc(CO[C@@H]2CN[C@@H](CO)C2)cc1.Cl [Compound 6]
IC50 [1]: 15.1 ± 1 µM
cell killing, combination with trametinib [2]: kills patient-derived leukemia cells without killing the irradiated stromal cell layer
lymphocyte sequestration / immunosuppression [3]: does not cause immunosuppression
IC50 [4]: 13.5 ± 2.4 µM
tissue accumulation [5]: accumulates in tissues to higher levels than are present in blood
gain of functional activity [6]: no longer shows gain of functional activity
differential sensitivity to compound 6 relative to its enantiomers [7]: this difference is maintained
potency in dose response, viability [8]: more potent than FTY720 and its enantiomer, compound 39
leukemic burden in the bone marrow [9]: dramatic reduction in the leukemic burden in the bone marrow
IC50 [10]: 13.5 ± 2.6 µM
effect on heart rate [11]: nor does it decrease heart rate
cell killing at 72 h ([12]; 1 μM (=0.5×IC50), alone): does not kill
cell death in combination with dasatinib ([12]; 1 μM compound 6 + dasatinib 200 nM): increases cell death
cell viability at 72 h ([12]; 2 μM (1×IC50), alone): significantly reduces cell viability
cell death in combination with dasatinib ([12]; 2 μM compound 6 + dasatinib): increases cell death beyond that caused by compound 6 alone
IC50 ([12]; BCR-Abl+ SupB15 leukemia cell line, read-out: IC50): 2 µM
ability to kill leukemia cells, potency compared in words ([12]; Sup-B15 cell viability assays): activity much greater than compounds 5, 7, and 8; also recorded: enhanced anticancer activity relative to its diasteromeric congeners and to FTY720
killing compared with dasatinib ([12]; both drugs at their maximally active dose): kills better than dasatinib
IC50 [13]: 6.9 ± 0.3 µM
